One test concerns E. faecium ATCC 700221. The test is classed as cell-based, Enterococcus faecium. The settings on record: ATCC 700221, 18 h. The procedure: (§1) Examination of antimicrobial activity of the test compounds was conducted on reference strains of bacteria assigned to ESKAPE group of pathogens: Enterococcus faecium ATCC 700221, Klebsiella pneumoniae ATCC 700603, Acinetobacter baumannii ATCC BAA-1605, Pseudomonas aeruginosa ATCC 9027, Klebsiella aerogenes ATCC 13048 (formerly Enterobacter aerogenes) and reference strains of Staphylococcus aureus, namely: S. aureus ATCC 25923, S. aureus ATCC 6538, S. aureus ATCC 33591 (MRSA), S. aureus ATCC 9144 and S. aureus ATCC 12598. All the strains were stored at −80 °C in Roti®-Store cryo vials (Carl Roth GmbH, Karlsruhe, Germany) and before the tests were transferred into fresh Mueller-Hinton Medium (BioMaxima, Lublin, Poland) and incubated for 24 h at 37 °C. Subsequently, each bacterial inoculum was seeded on Mueller-Hinton Agar plates (BioMaxima) and incubated again for 24 h. The cultures prepared in this way were used in further antimicrobial assays and prepared as described above. The MIC values were determined by the broth microdilution method according to Clinical and Laboratory Standards Institute Protocol. For this purpose, initial inoculums of bacteria (0.5 × 10^5 colony forming unit (CFU)/mL) in Mueller–Hinton Broth were exposed to the ranging concentrations of compounds (0.5–256 µg/mL) and incubated for 18 h at 37 °C. The experiments were conducted on 96-well microtiter plates, with a final volume of 100 µL. Cell densities were adjusted spectrophotometrically (Multiskan™ GO Microplate Spectrophotometer, Thermo Scientific) at 600 nm. The MICs were taken as the lowest drug concentration at which a visible growth of microorganisms was inhibited. All experiments were conducted in triplicate and included positive (growth) and negative (sterility) controls.

In test [1] the test system is K. pneumoniae ATCC 700603. The test is classed as cell-based, Klebsiella pneumoniae. The conditions noted are these: ATCC 700603, 18 h. As to the method: as §1
Test [2] relates to A. baumannii ATCC BAA-1605. The test is classed as cell-based, Acinetobacter baumannii. The settings on record: ATCC BAA-1605, 18 h. As to the method:
as §1

In the next test the test system is P. aeruginosa ATCC 9027. The test is classed as cell-based, Pseudomonas aeruginosa. The settings on record: ATCC 9027, 18 h. The procedure: as §1
The next test concerns K. aerogenes ATCC 13048. The test is classed as cell-based, Klebsiella aerogenes. The conditions noted are these: ATCC 13048, 18 h. As to the method:
as §1

Another test relates to S. aureus ATCC 12598. The test is classed as cell-based, Staphylococcus aureus. The conditions noted are these: ATCC 12598, 18 h. The procedure:
as §1

The next test deals with S. aureus ATCC 25923. In kind it is cell-based, Staphylococcus aureus. The settings on record: ATCC 25923, 18 h. As to the method: as §1
In test [3] the test system is S. aureus ATCC 33591 (MRSA). The test is classed as cell-based, Staphylococcus aureus. The conditions noted are these: ATCC 33591, 18 h. As to the method:
as §1

In the next test the test system is S. aureus ATCC 6538. In kind it is cell-based, Staphylococcus aureus. The conditions noted are these: ATCC 6538, 18 h. As to the method: as §1
The next test concerns S. aureus ATCC 9144. In kind it is cell-based, Staphylococcus aureus. The settings on record: ATCC 9144, 18 h. As to the method: as §1
For test [4], the system named is S. aureus ATCC 12598 biofilm. The test is classed as cell-based, Staphylococcus aureus. The settings on record: ATCC 12598, 24 h. As to the method:
(§2) The MBECs values were determined according to the method reported previously. Briefly, 24-h cultures of S. aureus, namely: S. aureus ATCC 25923, S. aureus ATCC 6538, S. aureus ATCC 33591 (MRSA), S. aureus ATCC 9144 and S. aureus ATCC 12598 were diluted to a concentration of 0.5 × 10^7 CFU/mL and added to the test wells of polystyrene microdilution flat-bottom plates. After 24-h of incubation at 37 °C, the wells were rinsed three times with PBS to remove non-adherent cells. Subsequently, 100 μL of the test compounds over a concentration range 0.5–256 µg/mL were added to each well and incubated again for 24 h at 37 °C. After this period, 20 μL of the resazurin (7-hydroxy-3H-phenoxazin-3-one-10-oxide, 4 mg/mL) solution was added to each well. After 1 h of incubation, the MBECs were read out. The determined values were recorded as the lowest concentration at which the reduction of resazurin (from blue to pink) was lower or equal to 10 ± 0.5% as compared to the positive (100%) and negative (0%) controls. All experiments were performed in triplicate.

For test [5], the system named is S. aureus ATCC 25923 biofilm. In kind it is cell-based, Staphylococcus aureus. The settings on record: ATCC 25923, 24 h. As to the method: as §2
Test [6] has as its system S. aureus ATCC 33591 (MRSA) biofilm. In kind it is cell-based, Staphylococcus aureus. The settings on record: ATCC 33591, 24 h. The procedure:
as §2

For test [7], the system named is S. aureus ATCC 6538 biofilm. The test is classed as cell-based, Staphylococcus aureus. The settings on record: ATCC 6538, 24 h. As to the method:
as §2

In test [8] the test system is S. aureus ATCC 9144 biofilm. In kind it is cell-based, Staphylococcus aureus. The conditions noted are these: ATCC 9144, 24 h. As to the method:
as §2

Test [9] concerns human keratinocytes (HaCaT). The test is classed as cell-based. The conditions noted are these: 24 h. The procedure: The cytotoxicity of test compounds (IC50) was evaluated for human keratinocytes (HaCaT, ATCC) using classic MTT assay on 96-well plates. In this assay, a colorimetric determination of the cell metabolic activity was carried out. Specifically, the color intensity reflects the number of live cells that can be measured spectrophotometrically. […] A day after plating 500 cells per well, a series of concentrations (0.5–500 μg/mL) of the test compounds were added. Dimethyl sulfoxide (DMSO) was used as a control in cells at a final concentration of 1.0% (v/v), which was related to the maximal concentration of the solvent compounds used in the experiment. After 24 h of incubation with test compounds, a medium containing 1 mg/mL of MTT was added up to a final concentration of 0.5 mg/mL and subsequently incubated at 37 °C for 4 h. Then, the medium was aspirated and the formazan product was solubilized with DMSO. The background absorbance at 630 nm was subtracted from that at 570 nm for each well (Epoch, BioTek Instruments, Winooski, VT, USA). Six replicates were conducted for each concentration. All experiments were repeated at least twice and the resulting IC50 values were calculated with a GraFit 7 software (v. 7.0, Erithacus, Berkley, CA, USA).

Test [10] has as its system reference strains of S. aureus. The test is classed as cell-based, Staphylococcus aureus. The settings on record: reference strains of, 24 h. The procedure:
as §1, with “For this purpose, initial inoculums of bacteria (0.5 × 10^5 colony forming unit (CFU)/mL) in Mueller–Hinton Broth were exposed to the ranging concentrations of compounds (0.5–256 µg/mL) and incubated for 18 h at 37 °C.” left out

The MIC is the least concentration at which growth counts as inhibited. Higher therefore signals a less susceptible organism. As a reminder, the IC50 is the point on the concentration scale where inhibition reaches its midpoint.

Converted amounts (≈) assume the structure as drawn. Ends that are not written are not given here. Peptide text beside a SMILES is read from it. * marks the point of attachment. Decanoyl = CCCCCCCCCC(=O)*; Hexanoyl = CCCCCC(=O)* Where only a bound is given, the exact number is not on record here.

Take KRIVQRIKDFLR-NH2 [X, KRIVQRIKDFLR-NH2]: the MIC is on record as 8 µg/mL against E. faecium ATCC 700221; >256 µg/mL in [1]; 256 µg/mL in test [2]; 16 µg/mL against P. aeruginosa ATCC 9027; >256 µg/mL against K. aerogenes ATCC 13048; >256 µg/mL in the test on S. aureus ATCC 12598. Besides, the MIC is given as >256 µg/mL with S. aureus ATCC 25923, >256 µg/mL in test [3], 256 µg/mL against S. aureus ATCC 6538 and >256 µg/mL in the test with S. aureus ATCC 9144. Also, the MBEC in [4], in test [5], in [6], in test [7] and in test [8] was >256 µg/mL in each case. In [9], this compound came in with an IC50 of 74.60 µg/mL. The “GM (geometric mean of the MIC values against S. aureus)” value (from here on “GM”) in test [10] was >256.00 µg/mL.

For the compound `CCCCCC(=O)N[C@@H](CCCCN)C(=O)N[C@@H](CCCNC(=N)N)C(=O)N[C@H](C(=O)N[C@H](C(=O)N[C@@H](CCC(N)=O)C(=O)N[C@@H](CCCNC(=N)N)C(=O)N[C@H](C(=O)N[C@@H](CCCCN)C(=O)N[C@@H](CC(=O)O)C(=O)N[C@@H](Cc1ccccc1)C(=O)N[C@@H](CC(C)C)C(=O)N[C@@H](CCCNC(=N)N)C(N)=O)[C@@H](C)CC)C(C)C)[C@@H](C)CC` [III, C6-KR12-NH2] (Hexanoyl-KRIVQRIKDFLR-NH2), the MIC against E. faecium ATCC 700221 was found to be 2 µg/mL (≈ 1.2 µM); in test [1], 16 µg/mL (≈ 9.59 µM); in [2], 16 µg/mL (≈ 9.59 µM); in the test on P. aeruginosa ATCC 9027, 8 µg/mL (≈ 4.79 µM); against K. aerogenes ATCC 13048, 16 µg/mL (≈ 9.59 µM); in the test on S. aureus ATCC 12598 it was 8 µg/mL (≈ 4.79 µM). Besides, the MIC stood at 16 µg/mL (≈ 9.59 µM) against S. aureus ATCC 25923, 16 µg/mL (≈ 9.59 µM) in test [3], 4 µg/mL (≈ 2.4 µM) against S. aureus ATCC 6538 and 8 µg/mL (≈ 4.79 µM) against S. aureus ATCC 9144. In addition, the MBEC turned out to be 16 µg/mL in [4]; 32 µg/mL in [5]; 16 µg/mL in test [6]; 16 µg/mL in test [7]; 16 µg/mL in [8]. Further, in test [9], the IC50 is 10.13 µg/mL (≈ 6.07 µM). Also, the “GM” value in [10] stood at 9.19 µg/mL.

“Ac-KRIVQRIKDFLR-NH2 [I, Ac-KR12-NH2 (C2-KR12-NH2)]”: the MIC in the test with E. faecium ATCC 700221 is on record as 16 µg/mL; in [1] it was >256 µg/mL; in test [2], >256 µg/mL; against P. aeruginosa ATCC 9027, 64 µg/mL; against K. aerogenes ATCC 13048, >256 µg/mL; in the test with S. aureus ATCC 12598 it was >256 µg/mL. In addition, the MIC is on record as >256 µg/mL against S. aureus ATCC 25923, >256 µg/mL in [3], 256 µg/mL with S. aureus ATCC 6538 and >256 µg/mL against S. aureus ATCC 9144. The MBEC in [4], in [5], in test [6], in [7] and in test [8] was >256 µg/mL throughout. In [9], this compound displayed an IC50 of 84.20 µg/mL. For the same compound, in [10], the “GM” value was >256.00 µg/mL.

Regarding `CCCCCCCCCC(=O)N[C@@H](CCCCN)C(=O)N[C@@H](CCCNC(=N)N)C(=O)N[C@H](C(=O)N[C@H](C(=O)N[C@@H](CCC(N)=O)C(=O)N[C@@H](CCCNC(=N)N)C(=O)N[C@H](C(=O)N[C@@H](CCCCN)C(=O)N[C@@H](CC(=O)O)C(=O)N[C@@H](Cc1ccccc1)C(=O)N[C@@H](CC(C)C)C(=O)N[C@@H](CCCNC(=N)N)C(N)=O)[C@@H](C)CC)C(C)C)[C@@H](C)CC` [V, C10-KR12-NH2] (Decanoyl-KRIVQRIKDFLR-NH2), the MIC came to 2 µg/mL (≈ 1.16 µM) in the test on E. faecium ATCC 700221; 16 µg/mL (≈ 9.27 µM) in test [1]; 8 µg/mL (≈ 4.64 µM) in test [2]; 8 µg/mL (≈ 4.64 µM) in the test on P. aeruginosa ATCC 9027; 16 µg/mL (≈ 9.27 µM) in the test with K. aerogenes ATCC 13048; 4 µg/mL (≈ 2.32 µM) against S. aureus ATCC 12598. Moreover, the MIC (in the test with S. aureus ATCC 25923; in [3]; with S. aureus ATCC 6538; against S. aureus ATCC 9144) was 4 µg/mL (≈ 2.32 µM) each time. The MBEC in test [4] was determined as 8 µg/mL; in test [5] it was 32 µg/mL; in test [6], 32 µg/mL; in test [7], 32 µg/mL; in test [8], 16 µg/mL. For the same compound, in test [9], the IC50 was 5.97 µg/mL (≈ 3.46 µM). For the same compound, in test [10], the “GM” value turned out to be 4.00 µg/mL.

The record behind these values is article PMC7036753, “Lipidated Analogs of the LL-37-Derived Peptide Fragment KR12—Structural Analysis, Surface-Active Properties and Antimicrobial Activity” (International Journal of Molecular Sciences, 2020).
